Test results reported in ChEMBL document CHEMBL5465560, “Selectivity Literature for EUbOPEN Chemogenomic Library” (2024).
Each block holds one molecule with its values, some of them ahead of it.

Legend:
[1] = biological target: Aurora kinase B (Homo sapiens, UniProt Q96GD4); details: at 10 µM
[2] = biological target: DNA-dependent protein kinase catalytic subunit (Homo sapiens) (UniProt P78527); assay: Selectivity interaction (ActivX KiNativ screen (kinase selectivity in THP-1 cell lysates)) EUB0000639a PRKDC; type: subcellular; details: lysate, at 1 µM
DNA-dependent protein kinase catalytic subunit (Homo sapiens), sequence (P78527 whole entry): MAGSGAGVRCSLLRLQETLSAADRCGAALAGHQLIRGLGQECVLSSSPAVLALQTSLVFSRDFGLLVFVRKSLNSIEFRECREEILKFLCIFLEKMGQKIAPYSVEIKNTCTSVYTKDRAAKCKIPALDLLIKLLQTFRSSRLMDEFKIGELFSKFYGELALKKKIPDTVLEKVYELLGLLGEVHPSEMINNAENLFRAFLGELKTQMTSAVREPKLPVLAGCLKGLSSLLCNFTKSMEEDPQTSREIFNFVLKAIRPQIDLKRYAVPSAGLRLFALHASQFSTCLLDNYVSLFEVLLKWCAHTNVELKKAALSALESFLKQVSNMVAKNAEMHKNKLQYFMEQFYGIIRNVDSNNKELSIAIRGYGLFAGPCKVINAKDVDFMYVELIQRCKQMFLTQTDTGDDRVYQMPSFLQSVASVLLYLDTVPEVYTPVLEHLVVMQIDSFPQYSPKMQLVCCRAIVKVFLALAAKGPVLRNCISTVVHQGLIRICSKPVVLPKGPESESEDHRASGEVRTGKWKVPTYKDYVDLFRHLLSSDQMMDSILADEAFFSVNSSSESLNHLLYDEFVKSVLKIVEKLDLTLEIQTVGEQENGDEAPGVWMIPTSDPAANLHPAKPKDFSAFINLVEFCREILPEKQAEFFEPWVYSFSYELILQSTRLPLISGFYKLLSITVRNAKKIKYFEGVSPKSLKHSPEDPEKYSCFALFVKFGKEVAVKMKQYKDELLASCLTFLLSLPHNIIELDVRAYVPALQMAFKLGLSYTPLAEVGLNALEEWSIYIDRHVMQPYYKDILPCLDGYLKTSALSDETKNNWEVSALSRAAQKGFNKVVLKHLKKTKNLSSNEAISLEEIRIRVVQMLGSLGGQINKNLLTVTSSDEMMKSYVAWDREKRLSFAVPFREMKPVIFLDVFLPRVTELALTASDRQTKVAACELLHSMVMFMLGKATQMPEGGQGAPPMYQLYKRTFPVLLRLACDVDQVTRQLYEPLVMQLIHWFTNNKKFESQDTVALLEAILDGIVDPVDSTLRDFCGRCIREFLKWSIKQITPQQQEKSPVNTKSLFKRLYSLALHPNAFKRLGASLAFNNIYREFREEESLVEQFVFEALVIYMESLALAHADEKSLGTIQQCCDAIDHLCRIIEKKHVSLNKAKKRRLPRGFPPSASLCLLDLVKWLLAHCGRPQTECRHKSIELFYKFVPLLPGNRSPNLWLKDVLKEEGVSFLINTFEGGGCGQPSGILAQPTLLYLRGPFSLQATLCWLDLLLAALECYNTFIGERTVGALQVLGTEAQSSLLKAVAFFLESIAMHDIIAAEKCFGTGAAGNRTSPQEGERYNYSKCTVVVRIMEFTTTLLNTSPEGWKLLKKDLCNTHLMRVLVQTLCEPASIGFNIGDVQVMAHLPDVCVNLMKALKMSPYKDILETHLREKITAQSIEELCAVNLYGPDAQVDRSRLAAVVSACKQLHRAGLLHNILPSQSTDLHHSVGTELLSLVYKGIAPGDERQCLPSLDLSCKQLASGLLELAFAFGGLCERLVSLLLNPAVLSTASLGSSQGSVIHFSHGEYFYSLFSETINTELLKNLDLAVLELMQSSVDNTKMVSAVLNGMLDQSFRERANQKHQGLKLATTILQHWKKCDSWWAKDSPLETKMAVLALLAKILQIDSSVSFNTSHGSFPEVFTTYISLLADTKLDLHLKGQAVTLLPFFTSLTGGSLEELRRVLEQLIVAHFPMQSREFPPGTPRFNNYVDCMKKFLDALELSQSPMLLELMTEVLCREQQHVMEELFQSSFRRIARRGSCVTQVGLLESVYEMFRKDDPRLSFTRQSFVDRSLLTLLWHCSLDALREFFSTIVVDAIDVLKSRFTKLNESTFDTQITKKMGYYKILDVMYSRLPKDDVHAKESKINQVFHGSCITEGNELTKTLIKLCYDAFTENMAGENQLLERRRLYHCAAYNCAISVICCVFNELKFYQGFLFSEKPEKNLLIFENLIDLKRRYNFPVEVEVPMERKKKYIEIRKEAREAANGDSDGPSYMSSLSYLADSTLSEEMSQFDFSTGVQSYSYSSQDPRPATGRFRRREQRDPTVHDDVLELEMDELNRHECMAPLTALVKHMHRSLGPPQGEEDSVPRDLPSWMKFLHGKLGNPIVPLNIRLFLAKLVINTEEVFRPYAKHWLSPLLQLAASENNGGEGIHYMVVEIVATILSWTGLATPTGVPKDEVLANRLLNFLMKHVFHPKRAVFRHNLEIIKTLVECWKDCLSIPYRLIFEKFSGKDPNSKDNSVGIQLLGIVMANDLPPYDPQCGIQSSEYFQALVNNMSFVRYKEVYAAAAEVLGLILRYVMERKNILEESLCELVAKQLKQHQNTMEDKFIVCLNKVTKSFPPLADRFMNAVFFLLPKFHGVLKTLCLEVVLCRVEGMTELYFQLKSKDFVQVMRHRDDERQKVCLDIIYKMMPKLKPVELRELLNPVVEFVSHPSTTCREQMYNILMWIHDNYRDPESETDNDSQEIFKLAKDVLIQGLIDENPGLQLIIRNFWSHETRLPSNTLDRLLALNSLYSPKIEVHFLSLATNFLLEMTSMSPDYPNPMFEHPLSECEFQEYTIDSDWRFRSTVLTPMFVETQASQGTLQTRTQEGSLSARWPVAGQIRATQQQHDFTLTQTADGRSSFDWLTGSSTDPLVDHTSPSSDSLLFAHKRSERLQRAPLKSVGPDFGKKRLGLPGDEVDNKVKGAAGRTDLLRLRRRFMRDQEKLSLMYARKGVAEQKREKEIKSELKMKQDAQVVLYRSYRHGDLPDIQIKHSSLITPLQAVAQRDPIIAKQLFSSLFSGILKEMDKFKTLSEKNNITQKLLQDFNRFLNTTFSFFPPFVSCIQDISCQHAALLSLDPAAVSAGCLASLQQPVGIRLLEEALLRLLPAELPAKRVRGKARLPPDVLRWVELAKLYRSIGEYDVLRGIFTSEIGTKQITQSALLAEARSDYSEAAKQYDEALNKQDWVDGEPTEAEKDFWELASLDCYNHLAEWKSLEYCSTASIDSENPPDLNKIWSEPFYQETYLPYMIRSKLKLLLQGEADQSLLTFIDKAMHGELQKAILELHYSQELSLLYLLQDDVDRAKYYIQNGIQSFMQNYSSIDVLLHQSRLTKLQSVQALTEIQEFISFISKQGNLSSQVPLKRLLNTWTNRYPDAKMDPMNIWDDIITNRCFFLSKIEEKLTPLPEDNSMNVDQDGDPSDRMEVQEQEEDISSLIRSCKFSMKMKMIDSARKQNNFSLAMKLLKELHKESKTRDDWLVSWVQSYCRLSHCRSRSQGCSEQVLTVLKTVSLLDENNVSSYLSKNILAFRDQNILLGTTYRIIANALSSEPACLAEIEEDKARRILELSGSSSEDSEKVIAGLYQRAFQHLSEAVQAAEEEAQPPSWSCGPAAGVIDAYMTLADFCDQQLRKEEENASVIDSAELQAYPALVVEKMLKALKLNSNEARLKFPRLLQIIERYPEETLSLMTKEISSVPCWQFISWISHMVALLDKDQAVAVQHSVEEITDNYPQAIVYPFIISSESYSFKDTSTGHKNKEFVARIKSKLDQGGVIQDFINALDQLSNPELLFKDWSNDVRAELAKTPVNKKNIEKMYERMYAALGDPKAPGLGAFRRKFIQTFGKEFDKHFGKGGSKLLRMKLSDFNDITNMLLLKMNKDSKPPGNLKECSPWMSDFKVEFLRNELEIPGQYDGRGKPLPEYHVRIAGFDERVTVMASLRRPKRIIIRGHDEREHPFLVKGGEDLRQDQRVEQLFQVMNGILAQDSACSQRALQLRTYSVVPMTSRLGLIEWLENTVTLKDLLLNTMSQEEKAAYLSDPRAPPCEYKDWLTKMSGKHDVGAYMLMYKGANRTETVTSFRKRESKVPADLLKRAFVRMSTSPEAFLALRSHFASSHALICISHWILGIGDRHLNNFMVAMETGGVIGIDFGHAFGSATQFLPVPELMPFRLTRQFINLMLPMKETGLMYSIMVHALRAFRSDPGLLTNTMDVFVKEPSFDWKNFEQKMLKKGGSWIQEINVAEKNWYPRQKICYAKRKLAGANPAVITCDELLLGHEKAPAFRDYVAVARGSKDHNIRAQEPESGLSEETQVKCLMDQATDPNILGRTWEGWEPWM

[3] = biological target: cGMP-inhibited 3',5'-cyclic phosphodiesterase 3A (Homo sapiens, UniProt Q14432); assay: Selectivity interaction (Panel of non-epigenetic targets (kinases, GPCRs, ion channels, and transporters, Eurofins) ) EUB0000271b PDE3A; details: at 1 µM
[4] = biological target: TGF-beta receptor type-2 (Homo sapiens) (UniProt P37173); details: at 10 µM
[5] = biological target: T1, Ephrin type-A receptor 6 (Homo sapiens) (UniProt Q9UF33); assay: Selectivity interaction (KinomeScan (DiscoverX)) EUB0001079a EPHA6; details: at 1 µM
T1 sequence (whole entry): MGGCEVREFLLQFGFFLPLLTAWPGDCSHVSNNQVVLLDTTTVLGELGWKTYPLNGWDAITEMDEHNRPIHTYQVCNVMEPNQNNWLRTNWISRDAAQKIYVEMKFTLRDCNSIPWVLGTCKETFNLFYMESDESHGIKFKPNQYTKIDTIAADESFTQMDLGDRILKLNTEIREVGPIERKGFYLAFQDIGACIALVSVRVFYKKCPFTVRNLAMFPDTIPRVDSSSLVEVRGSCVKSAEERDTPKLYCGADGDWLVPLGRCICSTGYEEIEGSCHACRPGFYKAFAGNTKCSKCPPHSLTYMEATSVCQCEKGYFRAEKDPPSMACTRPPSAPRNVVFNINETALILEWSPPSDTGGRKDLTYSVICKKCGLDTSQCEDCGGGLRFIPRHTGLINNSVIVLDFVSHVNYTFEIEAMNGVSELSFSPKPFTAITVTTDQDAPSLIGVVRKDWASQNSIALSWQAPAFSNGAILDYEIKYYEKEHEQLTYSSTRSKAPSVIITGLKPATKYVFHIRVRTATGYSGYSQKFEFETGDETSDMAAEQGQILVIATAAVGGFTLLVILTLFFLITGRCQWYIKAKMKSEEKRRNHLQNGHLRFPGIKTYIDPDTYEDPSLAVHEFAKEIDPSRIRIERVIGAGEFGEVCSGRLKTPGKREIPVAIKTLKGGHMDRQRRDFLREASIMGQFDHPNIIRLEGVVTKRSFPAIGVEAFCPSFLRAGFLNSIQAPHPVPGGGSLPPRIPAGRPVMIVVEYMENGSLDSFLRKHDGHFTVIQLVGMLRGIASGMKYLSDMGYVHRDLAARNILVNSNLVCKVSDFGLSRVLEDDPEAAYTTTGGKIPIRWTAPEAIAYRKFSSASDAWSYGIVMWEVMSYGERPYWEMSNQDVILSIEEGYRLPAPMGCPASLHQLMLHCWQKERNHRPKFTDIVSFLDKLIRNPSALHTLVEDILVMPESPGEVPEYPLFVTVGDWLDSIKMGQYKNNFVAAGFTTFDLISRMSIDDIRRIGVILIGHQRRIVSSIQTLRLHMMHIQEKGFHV

[6] = biological target: T2, Serine/threonine-protein kinase NLK (Homo sapiens) (UniProt Q9UBE8); assay: Selectivity interaction (ProQinase) EUB0000171b NLK
T2 sequence (whole entry): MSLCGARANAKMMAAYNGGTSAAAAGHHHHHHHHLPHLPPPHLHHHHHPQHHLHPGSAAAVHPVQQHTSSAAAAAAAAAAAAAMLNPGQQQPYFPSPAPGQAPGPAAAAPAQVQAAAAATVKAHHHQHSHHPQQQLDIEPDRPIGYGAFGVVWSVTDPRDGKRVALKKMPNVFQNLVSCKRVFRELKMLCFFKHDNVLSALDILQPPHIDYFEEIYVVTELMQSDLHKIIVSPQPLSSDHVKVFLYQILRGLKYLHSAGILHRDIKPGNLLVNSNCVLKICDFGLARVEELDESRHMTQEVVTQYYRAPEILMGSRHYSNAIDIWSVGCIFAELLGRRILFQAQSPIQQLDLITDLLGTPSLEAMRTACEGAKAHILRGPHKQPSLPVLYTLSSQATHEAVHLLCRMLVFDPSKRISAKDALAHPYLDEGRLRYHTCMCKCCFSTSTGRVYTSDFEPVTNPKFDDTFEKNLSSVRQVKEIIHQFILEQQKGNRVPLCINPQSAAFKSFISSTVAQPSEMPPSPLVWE

[7] = biological target: Receptor tyrosine-protein kinase erbB-2 (Homo sapiens, UniProt P04626); assay: Selectivity interaction (KinomeScan (DiscoverX)) EUB0000092b ERBB2; details: at 10 µM
[8] = biological target: Protein kinase C eta type (Homo sapiens) (UniProt P24723); assay: Selectivity interaction (KinomeScan (DiscoverX)) EUB0000655a PRKCH; details: at 10 µM
Protein kinase C eta type (Homo sapiens), sequence (P24723 whole entry): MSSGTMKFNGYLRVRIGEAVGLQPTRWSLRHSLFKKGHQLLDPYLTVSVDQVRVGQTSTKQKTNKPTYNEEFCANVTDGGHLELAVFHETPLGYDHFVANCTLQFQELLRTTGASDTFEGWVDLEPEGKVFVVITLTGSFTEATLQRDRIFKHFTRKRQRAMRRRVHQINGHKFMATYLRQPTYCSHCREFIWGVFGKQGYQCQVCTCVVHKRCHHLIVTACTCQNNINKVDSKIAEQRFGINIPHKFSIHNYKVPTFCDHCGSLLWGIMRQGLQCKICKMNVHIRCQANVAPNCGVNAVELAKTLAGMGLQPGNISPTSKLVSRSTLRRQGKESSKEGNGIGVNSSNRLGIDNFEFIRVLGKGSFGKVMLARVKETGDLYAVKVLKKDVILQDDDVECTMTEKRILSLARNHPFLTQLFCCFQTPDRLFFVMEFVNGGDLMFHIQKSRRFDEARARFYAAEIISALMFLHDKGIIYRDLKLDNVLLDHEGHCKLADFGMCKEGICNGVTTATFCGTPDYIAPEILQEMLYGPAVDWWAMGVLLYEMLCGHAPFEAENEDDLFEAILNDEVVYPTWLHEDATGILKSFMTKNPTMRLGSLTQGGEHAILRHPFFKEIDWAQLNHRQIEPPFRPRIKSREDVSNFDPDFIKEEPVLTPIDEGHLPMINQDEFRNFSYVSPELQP

[9] = biological target: T3, Phosphatidylinositol 5-phosphate 4-kinase type-2 alpha (Homo sapiens) (UniProt P48426); assay: Selectivity interaction (ActivX KiNativ screen (ex vivo kinase selectivity in human PBMCs)) EUB0001619a PIP4K2A; type: cell-based; details: PBMC, at 1 µM
T3 sequence (whole entry): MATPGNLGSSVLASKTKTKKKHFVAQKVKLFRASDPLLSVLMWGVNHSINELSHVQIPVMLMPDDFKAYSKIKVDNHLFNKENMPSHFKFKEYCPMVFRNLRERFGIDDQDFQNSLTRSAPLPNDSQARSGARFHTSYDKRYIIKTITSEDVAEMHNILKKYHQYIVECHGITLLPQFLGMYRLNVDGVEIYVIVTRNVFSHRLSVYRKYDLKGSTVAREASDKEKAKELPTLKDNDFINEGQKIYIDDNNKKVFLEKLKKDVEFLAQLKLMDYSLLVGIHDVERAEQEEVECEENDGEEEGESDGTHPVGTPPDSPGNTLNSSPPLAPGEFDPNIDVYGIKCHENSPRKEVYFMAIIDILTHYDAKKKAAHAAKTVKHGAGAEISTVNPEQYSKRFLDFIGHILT

[10] = biological target: Phosphatidylinositol 4,5-bisphosphate 3-kinase catalytic subunit beta isoform (Homo sapiens) (UniProt P42338); assay: Selectivity interaction (ActivX KiNativ screen (ex vivo kinase selectivity in human PBMCs)) EUB0001619a PIK3CB; type: cell-based; details: PBMC, at 1 µM

Aurora kinase B, sequence (Q96GD4 whole entry): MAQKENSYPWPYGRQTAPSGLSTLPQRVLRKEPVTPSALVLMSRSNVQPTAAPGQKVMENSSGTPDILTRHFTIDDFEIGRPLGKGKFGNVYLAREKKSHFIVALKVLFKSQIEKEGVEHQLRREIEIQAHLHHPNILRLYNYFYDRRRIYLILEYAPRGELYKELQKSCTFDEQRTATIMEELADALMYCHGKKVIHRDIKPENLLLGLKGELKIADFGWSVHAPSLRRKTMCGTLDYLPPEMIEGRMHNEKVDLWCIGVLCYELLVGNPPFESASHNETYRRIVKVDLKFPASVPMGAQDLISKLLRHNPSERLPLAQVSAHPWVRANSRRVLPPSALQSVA

Structure (SMILES): Cc1cc([C@@H](C)Nc2ccccc2C(=O)O)c2nc(N3CCOCC3)cc(=O)n2c1 [AZD-6482]
% of control [1]: 96%

% of inhibition [2]: 7.2%
Structure (SMILES): CC[C@@H]1[C@H](F)C(=O)N[C@@H]1COc1nccc2cc(C(N)=O)c(OC)cc12 [ZIMLOVISERTIB]

Structure (SMILES): Cc1cc(C)cc([C@@H]2c3cc(C)ccc3NC(=O)CN2C(=O)c2ccc(Br)s2)c1
% of inhibition [3]: -11%

Structure (SMILES): COCC(=O)NC/C=C/c1ccc2ncnc(Nc3ccc(Oc4ccc(C)nc4)c(C)c3)c2c1 [CP-724714]
% of control [4]: 94%

Structure (SMILES): Nc1cnc(N2CCc3cc(S(=O)(=O)Nc4c(F)cc(Cl)cc4F)cc(N4CCCC4=O)c32)nc1 [TP-020n]
% of control [5]: 98%

% of control ([6]; at 1 µM): 86% | % of control ([6]; at 5 µM): 37%
Structure (SMILES): C=CC(=O)Nc1cccc(C(=O)Nc2ccc(Nc3cc(-c4[nH]c(SC)nc4C)ccn3)cc2)c1

Structure (SMILES): CCC(=O)N1CCN(c2ccc(-n3c(=O)ccc4cnc5ccc(-c6cnc7ccccc7c6)cc5c43)cc2C(F)(F)F)CC1
% of control [7]: 91%

Structure (SMILES): CN(C)CCOc1ccc(-c2nc(-c3ccncc3)c(-c3ccc4c(c3)CC/C4=N\O)[nH]2)cc1
% of control [8]: 100%

Structure (SMILES): N#Cc1cccc(-c2c[nH]c3ncnc(N4CCOCC4)c23)c1
% of inhibition [9]: 16% | % of inhibition [10]: -1%
